Measured values published in patent US12686668B2, “Leukotriene synthesis inhibitors” (Naegis Pharmaceuticals Inc., priority 2019, dated 2026).
Read-outs that look alike come from different tables or passages of the source.

Columns and labels:
[1] = Solubilized concentration of compound in eye drop formulation (HPLC); assay type: physicochemical; details: eye drop formulation: 20% hydroxypropyl β-cyclodextrin, 0.5% HPMC, 1.6 mM EDTA in PBS
Protocol: Eye drops were prepared by adding compounds at a theoretical concentration of 10 mg/mL to a 2 mL microcentrifuge tube before adding a stir bar and the selected formulation that consisted of (w/v) hydroxypropyl β-cyclodextrin (Trappsol) (20%), hydroxyl propyl methylcellulose (0.5%) and EDTA (1.6 mM) in phosphate buffered saline. Tubes containing compound in eye drop formulation were heated to 60-65° C. and stirred at least 4 hours to overnight. The tubes were removed from the heat bath and centrifuged at 10,000 ref for 5 minutes to clear the solution of any residual drug not in solution. The supernatant was removed from the tubes and one 10 μL sample was removed for HPLC analysis of solubilized by HPLC using an ACE C18 column (4.5 mm×150 mm, 5 m), eluted with acetonitrile/methanol/water mixture with H3PO4, pH 3.5 (50:30:20) with a flow rate of 2.5 mL/min. The solubilized concentration of each compound was calculated by interpolation from a standard curve based on reference standards solubilized in methanol when the assay was validated.
In Table 6, the data from distribution studies performed in Lewis rats show the concentration of each compound present in the retina 0.5 hr after the administration of a 10 μL drop of each topical formation is provided. Compounds were paired and individual formulations mixed at a ratio to make a mixture that contained ~2.5 mg/mL of each compound.

[2] = target: T1, recombinant human leukotriene A4 hydrolase enzyme (Homo sapiens, UniProt P09960); experiment: Amino-peptidase assay, alanine-4-nitroanalide; assay type: biochemical; details: negative values = augmented peptidase activity, read-out: % Inhibition aminopeptidase-Alanine-4-nitroanalide activity of LTA4H (3 μM)
T1 construct: purchased Cayman Chemical 10007817
T1 sequence (P09960 1-611): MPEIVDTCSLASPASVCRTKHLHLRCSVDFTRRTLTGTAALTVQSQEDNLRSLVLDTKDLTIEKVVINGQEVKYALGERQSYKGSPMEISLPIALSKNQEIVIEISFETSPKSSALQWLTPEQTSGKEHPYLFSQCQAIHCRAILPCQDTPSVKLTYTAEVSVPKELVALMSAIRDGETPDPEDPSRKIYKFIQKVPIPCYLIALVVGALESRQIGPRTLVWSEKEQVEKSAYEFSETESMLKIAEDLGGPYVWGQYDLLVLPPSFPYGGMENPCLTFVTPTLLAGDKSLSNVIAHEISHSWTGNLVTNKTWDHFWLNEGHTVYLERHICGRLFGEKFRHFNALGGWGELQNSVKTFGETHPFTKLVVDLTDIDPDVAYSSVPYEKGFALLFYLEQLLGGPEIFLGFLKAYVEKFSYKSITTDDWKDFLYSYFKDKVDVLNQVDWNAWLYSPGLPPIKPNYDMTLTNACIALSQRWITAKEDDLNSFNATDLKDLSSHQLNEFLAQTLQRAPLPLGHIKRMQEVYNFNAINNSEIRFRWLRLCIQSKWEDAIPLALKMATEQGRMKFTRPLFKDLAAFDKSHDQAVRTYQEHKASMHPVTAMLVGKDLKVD
Summary of the method: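 Compounds pre-incubated in the dark with recombinant human LTA4H (0.5 μg) in 50 mM Tris-HCl, 100 mM KCl; reaction started with alanine-4-nitroanilide (6 mM solution). Aminopeptidase rate followed as A405 from 4-nitroaniline, referenced to a standard; inhibition calculated versus controls, with negative values indicating augmented activity.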

[3] = tested on: LTC4 production in MC/9 cells; experiment: MC/9 HPLC assay, inhibition of LTC4 production; assay type: cell-based; details: Mus musculus; for inhibition at 3 µM: MC9, 3 μM, A23187 stimulated
Summary of the method: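 MC/9 cells (3×10^6 in HBSS) pre-incubated 30 min with compound, then stimulated 20 min at room temperature with 1 μM A23187. After methanol quench and C18 solid-phase extraction, LTB4 and LTC4 quantified by HPLC against reference standards; inhibition relative to control samples.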

[4] = target: T1, recombinant human leukotriene A4 hydrolase enzyme; experiment: Amino-peptidase assay, PGP; assay type: biochemical; details: concentration not given
Protocol: A series of compound concentrations were pre-incubated with 50 ng of recombinant human leukotriene A4 hydrolase enzyme (Cayman Chemical, 10007817) in 50 L assay buffer (50 mM Tris-HCl, 100 mM KCl). The reaction was stimulated by adding 50 L 1 mM proline-glycine-proline (Bachem, H-7284) and incubated for 30 minutes at 37° C. The reaction was stopped with the addition of 150 μL of glacial acetic acid. The amount of free proline released from the peptide was detected through a reaction with ninhydrin. 150 μL of 25 mg/mL ninhydrin (BDH, B10132) in 60:40 acetic acid/water was added to each sample, and boiled for 30 minutes at 100° C. and once samples had cooled to room temperature, 350 μL of toluene was added to extract the ninhydrin reaction product. The amount of free proline was determined by comparing the absorbance at 520 nm to the L-proline (Sigma Aldrich, 81709) reference standard. Inhibition of free proline production was calculated based on control samples.

[5] = MC9, Table 2 column 3, no concentration in head (1 μM according to b732), read-out: % Inhibition LTC4

In the case of `CCC(O)(CCc1ccc(Oc2nc3c(SC)cccc3s2)c(OC)c1)C(F)(F)F` (stereo not drawn) [Compound 104, 1-{3-methoxy-4-[(4-methylsulfanyl-1,3-benzothiazol-2-yl)oxy]phenyl}-3-(trifluoromethyl)pentan-3-ol], the Concentration of compound in formulation [1] is reported as 2860 µg/mL, the inhibition at 3 µM [2] is reported as -50 to 100% and the inhibition at 1 µM ([3]; MC9, 1 μM, read-out: % inhibition LTC4 (1 μM)) is reported as 90%. It also gave an inhibition at 3 µM [3] greater than 90% and an inhibition at 1 µM [3, 5] greater than 90%.

For `CC(O)(CCc1ccc(OCc2ccc3ccccc3n2)cc1)C(F)(F)F` (stereo not drawn) [Compound 183, 1,1,1-trifluoro-2-methyl-4-[4-(quinolin-2-ylmethoxy)phenyl]butan-2-ol], the inhibition at 3 µM [2] was greater than 75%, the “% Inhibition aminopeptidase-PGP activity of LTA4H” value [4] was greater than 75% and the inhibition at 3 µM [3] was greater than 90%. The inhibition at 1 µM [3, 5] was greater than 90%.
